Patent US9487538B2, “Two-carbon linked artemisinin-derived trioxane dimers” (THE JOHNS HOPKINS UNIVERSITY, priority 2013, dated 2016)

What was measured:
P. berghei ANKA strain = experiment: animal or person; type: in vivo; conditions: for average survival time of all mice receiving the compound: over both experiments, artemether: combination therapy groups
Protocol: Nearly all of the two-carbon linked dimer analogs were evaluated in Plasmodium berghei infected mice using a 60-day survival study. Each trioxane (0.64 mg) and mefloquine hydrochloride (1.92 mg) were dissolved in 100 μL of 7:3 Tween:EtOH mixture, and the mixture was further diluted with 965 μL of water (total volume of 1065 μL). Twenty-four hours after infection with P. berghei ANKA strain (2×10^7 parasitized erythrocytes), each of four 5-week old C57BL/6J mice (Jackson Laboratory, weighing approximately 20 g each) received 200 μL of the trioxane solution via oral gavage, corresponding to a dose of 6 mg/kg of trioxane and 18 mg/kg of mefloquine hydrochloride. Blood parasitemia levels and duration of animal survival as compared to survival time of animals receiving no drug were monitored, both being widely accepted measures of a drug's antimalarial efficacy.
A second mouse experiment was initiated to further evaluate several of the lead compounds. An alternative adjuvant to establish a broader understanding of the efficacy of these compounds also was evaluated. […] As summarized in Table 2, all of the lead compounds outperformed the drug artemether (4b), which prolonged survival to an average of 38.5 days and 19.0 days in combination with mefloquine and lumefantrine, respectively. One mouse receiving dimer methyl oxime Z-29 and mefloquine died early in the experiment (day 16) while the other three lived to day 60, an average of 49.0 days. Dimer methyl oxime Z-29 was, however, was marginally effective in combination with lumefantrine (26.3 day average) and not effective as a monotherapy, with an average survival time (8.3 days) similar to that of infected mice receiving no drug (8.8 days). Dimer allyl oxime 30 was efficacious in all three groups, extending survival time to 49.0 days, 41.3 days, and 46.8 days in combination with mefloquine, lumefantrine, or as a monotherapy, respectively. […] One mouse receiving mefloquine combination died at an extended time point (35 days) while the other three survived the entire 60 days, an average of 53.8 days. All four mice receiving lumefantrine combination survived the entire 60 days. […] The monotherapy dose prolonged survival time to 46.8 days, similar to that of dimer allyl oxime 30.

P388 leukemia = conditions: NCI Report, tested on 25 Oct. 1983; cited from earlier work
[1] = system: cell line panels consisting of 60 lines (nine disease-related subpanels); conditions: 60 cell lines; cited from earlier work
[2] = Table 1, trioxane 6 mg/kg + Mef-HCl 18 mg/kg, single oral dose
[3] = Table 1, trioxane 6 mg/kg + Mef-HCl 18 mg/kg, determined on day 3 post infection
[4] = Table 2, trioxane 6 mg/kg + lumefantrine 18 mg/kg
[5] = Table 2, trioxane 6 mg/kg + mefloquine 18 mg/kg
[6] = Table 2, trioxane 150 mg/kg, adjuvant none (monotherapy)
[7] = first experiment, trioxane 6 mg/kg + mefloquine hydrochloride 18 mg/kg, four mice

SMILES: C[C@H]1[C@@H](C(=O)C[C@H]2O[C@@H]3O[C@]4(C)CC[C@H]5[C@H](C)CC[C@@H]([C@H]2C)[C@@]35OO4)O[C@@H]2O[C@]3(C)CC[C@H]4[C@H](C)CC[C@@H]1[C@@]24OO3 [compound 24, Artemisinin Two-Carbon Linked Dimer Ketone]
- survival after infection avg (P. berghei ANKA strain; [2]): 48.3 days
- % parasitemia suppression (P. berghei ANKA strain; [3]): >99.9%

SMILES: C[C@@H]1CC[C@H]2[C@@H](C)C(=O)O[C@@H]3O[C@@]4(C)CC[C@@H]1[C@]32OO4 [artemisinin]
- activity against P388 leukemia (P388 leukemia): inactive
- anticancer activity [1]: modest anticancer activity

SMILES: CO/N=C(/C[C@H]1O[C@H](OC)[C@@]23OC(C)C2C(C)C[C@H]3[C@H]1C)[C@H]1O[C@H](OC)[C@@]23OC(C)C2C(C)C[C@H]3[C@H]1C (stereo partly drawn) [Z-29, Dimer O-Methyl Oxime]
- inhibition in vivo at 150 mg/kg (P. berghei ANKA strain; Plasmodium berghei, in Mus musculus, po, Table 2, trioxane 150 mg/kg, adjuvant none (monotherapy), read-out: % parasitemia suppression): 98%
- survival after infection avg (P. berghei ANKA strain; [2]): 60.0 days
- % parasitemia suppression (P. berghei ANKA strain; [3]): >99.9%
- % parasitemia suppression (P. berghei ANKA strain; [4]): >99.9%
- survival after infection avg (P. berghei ANKA strain; [4]): 26.3 days
- % parasitemia suppression (P. berghei ANKA strain; [5]): >99.9%
- survival after infection avg (P. berghei ANKA strain; [5]): 49.0 days
- survival after infection avg (P. berghei ANKA strain; [6]): 8.3 days
- cure of mice (P. berghei ANKA strain; [7]): complete cures of all four mice

SMILES: C#CCO/N=C(/C[C@H]1O[C@@H]2O[C@@]3(C)CC[C@H]4[C@H](C)CC[C@@H]([C@H]1C)[C@@]24OO3)[C@H]1O[C@@H]2O[C@@]3(C)CC[C@H]4[C@H](C)CC[C@@H]([C@H]1C)[C@@]24OO3 [compound 34, dimer propargyl oxime]
- inhibition in vivo at 6 mg/kg (P. berghei ANKA strain; Plasmodium berghei, in Mus musculus, po, Table 2, as printed: trioxane 6 mg/kg, adjuvant none, dose 18, read-out: % parasitemia suppression): > 99.9%
- survival after infection avg (P. berghei ANKA strain; [2]): 60.0 days
- % parasitemia suppression (P. berghei ANKA strain; [3]): >99.9%
- survival after infection avg (P. berghei ANKA strain; Table 2, as printed: trioxane 6 mg/kg, adjuvant none, dose 18): 46.8 days
- % parasitemia suppression (P. berghei ANKA strain; [4]): >99.9%
- survival after infection avg (P. berghei ANKA strain; [4]): 60.0 days
- survival after infection (P. berghei ANKA strain; Table 2, trioxane 6 mg/kg + lumefantrine 18 mg/kg, single oral dose): 60 days
- % parasitemia suppression (P. berghei ANKA strain; [5]): >99.9%
- survival after infection avg (P. berghei ANKA strain; [5]): 53.8 days
- survival after infection avg (P. berghei ANKA strain; [6]): 46.8 days
- cure of mice (P. berghei ANKA strain; [7]): complete cures of all four mice
- average survival time of all mice receiving the compound (P. berghei ANKA strain): 55.1 days
- cure of mice (P. berghei ANKA strain; two separate experiments, in combination with two different adjuvants (mefloquine and lumefantrine)): complete cure

SMILES: C[C@H]1[C@@H](/C(C[C@H]2O[C@@H]3O[C@@]4(C)CC[C@H]5[C@H](C)CC[C@@H]([C@H]2C)[C@@]35OO4)=N\OCC2CC2)O[C@@H]2O[C@@]3(C)CC[C@H]4[C@H](C)CC[C@@H]1[C@@]24OO3 [compound 31, dimer O-methylcyclopropyl oxime]
- % parasitemia suppression (P. berghei ANKA strain; [5]): >99.9%
- survival after infection avg (P. berghei ANKA strain; [5]): 41 days

SMILES: C[C@H]1[C@@H](/C(C[C@H]2O[C@@H]3O[C@@]4(C)CC[C@H]5[C@H](C)CC[C@@H]([C@H]2C)[C@@]35OO4)=N\OC(C)(C)C)O[C@@H]2O[C@@]3(C)CC[C@H]4[C@H](C)CC[C@@H]1[C@@]24OO3 [compound 33, dimer tert-butyl oxime]
- % parasitemia suppression (P. berghei ANKA strain; [5]): >99.9%
- survival after infection avg (P. berghei ANKA strain; [5]): 23.8 days

SMILES: CO/N=C(\C[C@H]1O[C@H](OC)[C@@]23OC(C)C2C(C)C[C@H]3[C@H]1C)[C@H]1O[C@H](OC)[C@@]23OC(C)C2C(C)C[C@H]3[C@H]1C (stereo partly drawn) [E-29, Dimer O-Methyl Oxime]
- % parasitemia suppression (P. berghei ANKA strain; [5]): >99.9%
- survival after infection avg (P. berghei ANKA strain; [5]): 37.0 days

SMILES: CO[C@H]1O[C@@H]2O[C@@]3(C)CC[C@H]4[C@H](C)CC[C@@H]([C@H]1C)[C@@]24OO3 [artemether (4b), artemether, reference compound]
- survival after infection avg (P. berghei ANKA strain; [2]): 40.0 days
- % parasitemia suppression (P. berghei ANKA strain; [3]): >99.9%
- % parasitemia suppression (P. berghei ANKA strain; [4]): >99.9%
- survival after infection avg (P. berghei ANKA strain; [4]): 19.0 days
- % parasitemia suppression (P. berghei ANKA strain; [5]): >99.9%
- survival after infection avg (P. berghei ANKA strain; [5]): 38.5 days
- average survival time of all mice receiving the compound (P. berghei ANKA strain): 31.7 days

SMILES: C[C@H]1[C@@H](/C(C[C@H]2O[C@@H]3O[C@@]4(C)CC[C@H]5[C@H](C)CC[C@@H]([C@H]2C)[C@@]35OO4)=N\OC(=O)N(C)C)O[C@@H]2O[C@@]3(C)CC[C@H]4[C@H](C)CC[C@@H]1[C@@]24OO3 [compound 35, dimer oxime dimethylcarbamate]
- survival after infection avg (P. berghei ANKA strain; [2]): 51.8 days
- % parasitemia suppression (P. berghei ANKA strain; [3]): >99.9%

SMILES: CC(=O)O/N=C(/C[C@H]1O[C@@H]2O[C@@]3(C)CC[C@H]4[C@H](C)CC[C@@H]([C@H]1C)[C@@]24OO3)[C@H]1O[C@@H]2O[C@@]3(C)CC[C@H]4[C@H](C)CC[C@@H]([C@H]1C)[C@@]24OO3 [compound 36, dimer oxime acetate]
- survival after infection avg (P. berghei ANKA strain; [2]): 27.3 days
- % parasitemia suppression (P. berghei ANKA strain; [3]): >99.9%

SMILES: CO[C@H]1O[C@H](/C(C[C@H]2O[C@H](OC)[C@@]34OC(C)C3C(C)C[C@H]4[C@H]2C)=N\O)[C@H](C)[C@@H]2CC(C)C3C(C)O[C@@]312 (stereo partly drawn) [compound 28, Dimer Oxime]
- survival after infection avg (P. berghei ANKA strain; [2]): 52.5 days
- % parasitemia suppression (P. berghei ANKA strain; [3]): >99.9%
